In patent US9603896B2, “Peptide compounds and methods of production and use thereof” (priority 2012, dated 2017):
Like-named read-outs stand apart in the source and are kept apart here. Ends that are not written are not given here.

What was measured:
[1] = test system: Pseudomonas aeruginosa ATCC® 27853™; type: cell-based; details: 180 minutes
[2] = test system: Acinetobacter baumannii ATCC® BAA-747™; assay: In vitro bactericidal assay (CFU remaining, log reduction); type: cell-based; details: for reduction of CFU/ml / bactericidal activity against Acinetobacter baumannii: 60 minutes; for reduction of CFU/ml: highest peptide concentrations (25 μM); for bactericidal activity against Acinetobacter baumannii: peptides up to 25 μM, gentamicin 4 μg/ml
Protocol: The three peptide compounds BCC01-5RMP (SEQ ID NO:21), BCC02-5RMP (SEQ ID NO:22), and BCC03-5RMP (SEQ ID NO:23) were assayed for in vitro bactericidal activity against Pseudomonas aeruginosa, Escherichia coli, Salmonella typhimurium, and Acinetobacter baumannii. The starting inoculum for all experiments was 1×10^6 colony forming units (CFU)/ml. The CFU remaining at the end of 60 to 180 minute incubation was determined, and the data plotted as a log reduction in CFU/ml.
For FIGS. 10-13, in vitro bactericidal assays were performed using a starting inoculum of 1×10^6 CFU/ml of the bacterial suspension. The CFU remaining at the end of the 60-180 minute incubation was determined, and the data was plotted as log reduction in CFU/ml.
In particular, each of the test peptides (CAP37 peptides 120-146WR, 120-146WH, and 95-122 (SEQ ID NOs: 30, 31, and 26, respectively)) was used at 25, 12.5, 6.25, and 3.12 μM. Gentamicin was used at 4 μg/ml. 1×10^6/ml Acinetobacter baumannii ATCC® BAA-747″ or Pseudomonas aeruginosa ATCC® 27853™ (American Type Culture Collection, Manassas, Va.) were incubated with the peptides, negative buffer control (tryptone saline), and positive control gentamicin at pH 5.5 or 7.2. A 60 minute incubation was used for Acinetobacter baumannii ATCC® BAA747™, while a 180 minute incubation was used for Pseudomonas aeruginosa ATCC® 27853™. 50 μl aliquots were plated out on agar plates and incubated overnight. Colony forming units were counted after overnight incubation and CFU/ml calculated.

[3] = test system: P. aeruginosa (ATCC® 27853™); assay: Pseudomonas keratitis model in the mouse eye; type: in vivo; details: topical, doses of 10 and 20 mg/ml
Protocol: A circular wound was created on the mouse cornea by removing the epithelium and infected with 10^5 colony forming units (CFU) of P. aeruginosa (ATCC® 27853™ (American Type Culture Collection, Manassas, Va.)). Infected wounds were treated with saline (0.9% sodium chloride, vehicle control) or saline containing indicated concentrations of peptide every 15 minutes for 2 hours, then every 30 minutes for 3 hours on the first day. Infected wounds were treated twice on the second day and once on the third day. Mice were killed at 48 hours post-infection, and CFU/eye were quantified. The means were plotted and are representative of 5 to 9 mice per group. Mann Whitney test was performed for each group as compared to the saline control group. *P=0.014.
A circular wound (2 mm) was created on the mouse cornea by removing the epithelium and infecting the wound with 10^5 CFU of P. aeruginosa (ATCC® 27853™ (American Type Culture Collection, Manassas, Va.)). Infected wounds were treated with saline or saline containing indicated concentrations of peptide every 15 minutes for 2 hours, then every 30 minutes for 3 hours on the first day. Infected wounds were treated twice on the second day and once on the third day. Mice were killed at 48 hours post-infection, and the colony forming units per eye (CFU/eye) were quantified. The means are plotted and are representative of 5 to 9 mice per group. Mann Whitney test was performed for each group as compared to the saline control group.
For FIGS. 15-17, in vivo bactericidal activity of the peptides was also investigated using the standard Pseudomonas keratitis model in the mouse eye (FIGS. 15-17). Peptides 120-146QR-5RMP (SEQ ID NO:32), 120-146WH (SEQ ID NO:31), and 120-146WR (SEQ ID NO: 30) were applied topically at doses of 2, 5, 10, and 20 mg/ml to the wounded cornea that had been infected with 10^5 CFU of Pseudomonas aeruginosa. The efficacies of the peptides were compared to treatment with the vehicle control. Mice were euthanized at 48 hours post infection, and the CFU/eye were quantified.

## GTRCQVAGWGSWHSGGRLSRFPRFVNV [Peptide 120-146WH]
[1]; pH 5.5, highest concentrations (150 μg/ml)
  reduction of CFU (FIG. 14): 6 logs
[1]; pH 7.2, highest concentrations of peptides (25 μM)
  reduction of CFU/ml: 6 logs
[1]; pH 7.2, peptides at 25 μM
  bactericidal activity against Pseudomonas aeruginosa: as effective as the standard antibiotic gentamicin
[2]; 25 μM
  activity against A. baumannii: highly active
[2]; pH 5.5
  reduction of CFU/ml: ~4 logs
[2]; pH 7.2
  reduction of CFU/ml: ~5.5 logs
[3]
  CFU/eye at 48 hours post infection vs saline: significantly reduced the CFU/eye

## LDREANLTSSVTILPLPLQNATVEAGTR (listed as Homo sapiens) [Peptide 95-122]
[1]; pH 5.5, peptides up to 25 μM
  bactericidal activity against Pseudomonas aeruginosa: not active
[1]; pH 7.2, peptides at 25 μM
  bactericidal activity against Pseudomonas aeruginosa: not active
[2]; pH 5.5
  bactericidal activity against Acinetobacter baumannii: not active
[2]; pH 7.2
  bactericidal activity against Acinetobacter baumannii: not active
